Experiment in all cases: NCI anticancer screen, dose series, 48 h
Assay [1] deals with M19-MEL melanoma.
The test system of assay [2] is SF-295 CNS.
Assay [3] deals with COLO 205 colon.
In assay [4] the test system is K-562 leukemia.
Assay [5] concerns OVCAR-3 ovarian.
Assay [6] has as its system KM20L2 colon.
For assay [7], the system named is IGROV1 ovarian.
The subject of assay [8] is NCI-H460 lung.
Assay [9] has as its system DLD-1 colon.
Assay [10] has as its system EKVX NSCLC.
Assay [11] concerns LXFL 529 NSCLC.
The subject of assay [12] is MDA-MB-435.
Assay [13] has as its system DU-145 prostate.
Assay [14] relates to BT-549 breast.

Where “and” joins values, the source holds several entries; their conditions need not be identical. Equal entries are not always repeated.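 96-well plates; 48 h exposure; 5 concentrations. Endpoints by linear interpolation between flanking doses. Not reached: highest tested concentration assigned. GI50 marks 50% less growth. TGI: concentration producing complete growth inhibition.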

For the compound `COC(=O)C1C2C=CC(C2)N1[C@@H](C)c1ccccc1` (stereo partly drawn), the TGI in assay [1], in assay [2], in assay [3], in assay [4], in assay [5] and in [6] was above 100 µM each time. For the same compound, the TGI in [7], in assay [8], in assay [9], in assay [10] and in assay [11] was above 100 µM in each case.
In the case of `COc1ccc(C(C#N)NNc2nc(C)cc(=O)[nH]2)cc1OC` (stereo not drawn), the TGI in [1], in assay [2], in assay [3], in assay [4], in [5] and in assay [6] was above 100 µM throughout. For the same compound, the TGI in [7], in [8], in [9] and in [11] was above 100 µM each time.
With `CC(=O)NC1=C(C)C(=O)c2c(nc3n2CCC3O)C1=N` (stereo not drawn), the TGI in assay [1] was 4.94 µM; in assay [2], 38 µM; in assay [3], 33.4 µM; in [4], above 100 µM; in assay [5], 11.1 µM; in assay [6], 36.9 µM. The TGI in [7] is 39.3 µM; in assay [8], 51.3 µM; in assay [9], 25.1 µM; in assay [10] it was 37 µM.
On to `COc1ccc(C2S/C(=C\c3ccc(O)cc3)C(=O)N2NC(=O)Cc2ccccc2)cc1` (stereo not drawn), for which the TGI in assay [1], in assay [2], in assay [3], in assay [4], in assay [7] and in assay [8] was above 100 µM throughout. Moreover, the TGI in assay [9] and in [11] was above 100 µM throughout.
Regarding `O=C(CSC(=S)N1CCOCC1)Nc1nc2c(s1)CCCC2`, the TGI in assay [1], in [2], in assay [3], in [5], in assay [6] and in assay [7] was above 100 µM in each case. Moreover, the TGI in assay [8], in assay [9], in [10] and in assay [11] was above 100 µM each time.
Regarding `CC(=O)OC1c2ccccc2CCCCCCC12OCCO2` (stereo not drawn), the TGI in assay [2], in assay [3], in [4], in assay [5], in [6] and in assay [7] was above 100 µM each time. The TGI in assay [8] and in assay [9] was above 100 µM in each case.
Consider `CC(C)=CCSC1CC2C(CC1(C)O)C2(C)C` (stereo not drawn), for which the GI50 in assay [1] is 1.86 µM and 4.26 µM; in [4] it was 28.2 µM and 10.1 µM. Besides, the TGI in assay [1] was 3.31 µM and 19.3 µM; in assay [2] it was 55.9 µM and 35.2 µM; in assay [3], 32.5 µM and 30.8 µM; in assay [4] it was 80.1 µM and 29.6 µM; in [5] it was 31.2 µM and 23.6 µM; in assay [6], 30.8 µM and 34.9 µM. For the same compound, the TGI is 31.3 µM and 33 µM in assay [7]; 33.7 µM and 27.2 µM in [8]; 33.4 µM and 27.4 µM in [9]; 28.3 µM and 31.4 µM in assay [10]; 31.7 µM and 27.1 µM in [11].
As to `NC(=O)N1N=C2c3ccccc3SC[C@H]2[C@@H]1c1ccccc1`, the TGI was above 100 µM in assay [1]; 80.4 µM in assay [2]; 43.4 µM in [3]; above 100 µM in [4]; 35.1 µM in [5]; 39.8 µM in [6]. The TGI in [7] was 68.4 µM; in assay [8] it was 40.8 µM; in assay [9], 91 µM; in assay [10], above 100 µM; in [11], 94.2 µM.
Consider `CC(C)C1CC(O)O[C@@H]([C@@H](C)[C@H]2CC(=O)[C@@H]3[C@@H]4[C@@H](O)[C@H](O)[C@H]5[C@@H](O)[C@H](O)CC[C@]5(C)[C@H]4CC[C@]23C)C1` (stereo partly drawn), for which the TGI in assay [1], in [2], in assay [3], in [4], in assay [5] and in assay [6] was above 100 µM in each case. Moreover, the TGI in [7], in assay [8], in assay [9], in assay [10] and in assay [11] was above 100 µM in each case.
As for `CCC(CC)n1c(C)nc2c1C(=O)c1ccccc1C2=O`, the TGI in assay [1] was 33.4 µM; in [2] it was above 100 µM; in assay [3], above 100 µM; in assay [4] it was above 100 µM; in [5] it was 75.7 µM; in [6] it was above 100 µM. Besides, the TGI is above 100 µM in [7]; 49.7 µM in assay [8]; above 100 µM in assay [9]; above 100 µM in assay [10]; above 100 µM in assay [11].
As to `CC(C)CCn1c(=O)c2c(=O)[nH][nH]c2c2ccccc21`, the TGI in [2], in [3], in assay [4], in assay [12], in assay [5] and in assay [7] was above 100 µM each time. Also, the TGI in [8], in assay [13], in assay [10] and in assay [14] was above 100 µM each time.
As to `COc1ccc2c3c1OC1c4[nH]c5ccccc5c4CC4(O)C(C2)N(C)CCC314` (stereo not drawn), the TGI is above 100 µM in assay [2]; 37.7 µM in assay [3]; 37.2 µM in assay [4]; 35.7 µM in assay [12]; above 100 µM in [5]; above 100 µM in assay [7]. Also, the TGI in assay [8] was 50.3 µM; in assay [13] it was above 100 µM; in assay [10] it was above 100 µM; in assay [14], above 100 µM.
Turning to `COc1ccc(CCNC(=O)Cc2cc(OC)c(OC)cc2CO)cc1OC`, the TGI in assay [2], in [3], in assay [4], in assay [12], in assay [5] and in assay [7] was above 100 µM throughout. Further, the TGI in assay [8], in assay [13], in [10] and in [14] was above 100 µM throughout.
